In PubChem BioAssay (NCI):
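GI50 is the concentration that inhibits growth by half. Definition used: TGI = concentration required for complete inhibition of growth.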

What was measured:
Test in all cases: NCI anticancer screen, dose series, 384-well format
[1] = system: SN12C renal
[2] = system: MOLT-4 leukemia
[3] = system: HCT-15 colon
[4] = system: SF-295 CNS
[5] = system: RPMI-8226 leukemia
[6] = system: MDA-MB-468 breast
[7] = system: OVCAR-5 ovarian
[8] = system: K-562 leukemia
[9] = system: HS 578T breast
[10] = system: HCC-2998 colon
[11] = system: 786-0 renal
[12] = system: RXF 393 renal
[13] = system: SF-539 CNS
[14] = system: HT29 colon
[15] = system: SR leukemia
[16] = system: NCI-H460 NSCLC
[17] = system: NCI-H322M lung
[18] = system: NCI/ADR-RES ovarian
[19] = system: OVCAR-3 ovarian
[20] = system: IGROV1 ovarian
[21] = system: OVCAR-4 ovarian
[22] = system: SK-MEL-5 melanoma
[23] = system: UACC-62 melanoma
[24] = system: NCI-H23 lung
[25] = system: HOP-62 NSCLC
[26] = system: NCI-H226 lung
[27] = system: NCI-H522 lung
[28] = system: SNB-75 CNS
[29] = system: MDA-MB-231 breast
[30] = system: MALME-3M melanoma
[31] = system: LOX IMVI melanoma
[32] = system: A498 renal
[33] = system: U251 glioblastoma
[34] = system: HL-60(TB) leukemia
[35] = system: UO-31 renal
[36] = system: CAKI-1 renal
[37] = system: SK-MEL-28 melanoma
[38] = system: A549 NSCLC
[39] = system: SK-OV-3 ovarian
[40] = system: SNB-19 CNS
[41] = system: CCRF-CEM leukemia
[42] = system: TK-10 renal
[43] = system: COLO 205 colon
[44] = system: ACHN renal
[45] = system: DU-145 prostate
[46] = system: EKVX NSCLC
[47] = system: M14 melanoma
[48] = system: HOP-92 NSCLC
[49] = system: SW-620 colon
[50] = system: PC-3 prostate
[51] = system: MCF7 breast
[52] = system: SF-268 CNS
[53] = system: BT-549 breast
[54] = system: MDA-MB-435 melanoma
[55] = system: OVCAR-8 ovarian
[56] = system: UACC-257 melanoma
[57] = system: KM12 colon
[58] = system: T-47D breast

`FC(F)(c1ccc2ncccc2c1)c1nnc2ccc(-c3ccncc3)nn12` gave a GI50 [1] of 0.033 µM, a TGI [1] of over 100 µM and a GI50 [2] of 0.0102 µM. It also gave a TGI [2] of 0.183 µM, a GI50 [3] of 0.0557 µM and a TGI [3] of over 100 µM. It also gave a GI50 [4] of under 0.01 µM, a TGI [4] of 0.108 µM and a GI50 [5] of under 0.01 µM. It also gave a GI50 [6] of 0.022 µM, a TGI [6] of 0.628 µM and a GI50 [7] of 0.112 µM. It also gave a TGI [7] of over 100 µM, a GI50 [8] of 0.219 µM and a TGI [8] of over 100 µM. It also gave a GI50 [9] of under 0.01 µM, a TGI [9] of 0.137 µM and a GI50 [10] of under 0.01 µM. The TGI [10] was over 100 µM, the GI50 [11] was 0.191 µM and the TGI [11] was over 100 µM. It also gave a GI50 [12] of 0.0112 µM, a TGI [12] of 0.206 µM and a GI50 [13] of 0.164 µM. For the same molecule, the TGI [13] was over 100 µM, the GI50 [14] was 0.185 µM and the TGI [14] was over 100 µM. The GI50 [15] was under 0.01 µM, the TGI [15] was 0.126 µM and the GI50 [16] was under 0.01 µM. The TGI [16] was over 100 µM, the GI50 [17] was under 0.01 µM and the TGI [17] was over 100 µM. For the same molecule, the GI50 [18] was 0.46 µM and the TGI [18] was 27.2 µM.
`CN(Cc1cnc2nc(N)nc(N)c2n1)c1ccc(C(=O)N[C@@H](CCC(=O)O)C(=O)O)cc1` showed a TGI [2] of 0.0181 µM, a GI50 [19] of under 0.0148 µM and a TGI [19] of 0.0276 µM. For the same molecule, the GI50 [20] was 0.0286 µM, the TGI [21] was 0.0665 µM and the GI50 [4] was under 0.0135 µM. It also gave a TGI [4] of under 0.0209 µM, a GI50 [5] of 0.0173 µM and a TGI [5] of 0.0421 µM. It also gave a GI50 [22] of 0.13 µM, a TGI [22] of 87.3 µM and a TGI [7] of under 0.0154 µM. The GI50 [9] was under 0.0151 µM, the TGI [9] was 0.0316 µM and the GI50 [10] was 0.0391 µM. It also gave a GI50 [23] of 0.0189 µM, a GI50 [24] of 0.0304 µM and a TGI [24] of 0.308 µM. For the same molecule, the GI50 [25] was 0.0375 µM, the TGI [25] was 0.123 µM and the GI50 [26] was 0.0289 µM. For the same molecule, the GI50 [27] was 0.032 µM, the TGI [27] was 0.543 µM and the GI50 [28] was under 0.0129 µM. The TGI [28] was under 0.0283 µM, the GI50 [29] was 0.263 µM and the TGI [29] was 0.68 µM. The TGI [13] was 13.6 µM, the GI50 [30] was under 0.0153 µM and the TGI [31] was 0.014 µM. For the same molecule, the GI50 [32] was under 0.0188 µM, the TGI [32] was 0.232 µM and the GI50 [17] was under 0.0126 µM. The TGI [17] was 0.0226 µM, the GI50 [33] was 0.0317 µM and the TGI [34] was under 0.0142 µM. The GI50 [35] was 0.0295 µM, the TGI [35] was 9.76 µM and the GI50 [36] was 0.0263 µM. It also gave a TGI [36] of 0.0738 µM, a GI50 [37] of 0.0277 µM and a TGI [37] of 0.0607 µM. It also gave a TGI [38] of 0.0178 µM, a GI50 [39] of 1.45 µM and a GI50 [40] of under 0.0197 µM. For the same molecule, the TGI [41] was under 0.0113 µM, the GI50 [42] was 0.0236 µM and the TGI [42] was 0.0523 µM. For the same molecule, the GI50 [43] was 0.0513 µM and the TGI [43] was 95.9 µM.
`CC(C)c1cnn2c(NCc3ccccc3)cc(NC[C@H]3CCNC[C@@H]3O)nc12` showed a GI50 [44] of 0.782 µM, a TGI [44] of 11.2 µM and a GI50 [1] of 0.168 µM. It also gave a TGI [1] of 0.841 µM, a GI50 [2] of 0.122 µM and a TGI [2] of 0.267 µM. For the same molecule, the GI50 [19] was 0.105 µM, the TGI [19] was 0.578 µM and the GI50 [20] was 0.332 µM. The TGI [20] was 2.87 µM, the GI50 [21] was 0.154 µM and the TGI [21] was 0.475 µM. The GI50 [3] was 1.3 µM, the TGI [3] was 8.56 µM and the GI50 [4] was 0.419 µM. For the same molecule, the TGI [4] was 3.46 µM, the GI50 [5] was 0.0169 µM and the TGI [5] was 0.0565 µM. For the same molecule, the GI50 [6] was 0.328 µM, the TGI [6] was 0.662 µM and the GI50 [45] was 0.111 µM. It also gave a TGI [45] of 1.78 µM, a GI50 [22] of 0.242 µM and a TGI [22] of 0.655 µM. For the same molecule, the GI50 [7] was 0.246 µM, the TGI [7] was 0.77 µM and the GI50 [8] was 0.389 µM. The TGI [8] was 1.96 µM, the GI50 [9] was 0.214 µM and the TGI [9] was 0.501 µM. It also gave a GI50 [10] of 0.223 µM, a TGI [10] of 0.787 µM and a GI50 [46] of 0.467 µM. It also gave a TGI [46] of 2.53 µM, a GI50 [23] of 0.0578 µM and a TGI [23] of 0.238 µM. For the same molecule, the GI50 [24] was 0.167 µM, the TGI [24] was 0.644 µM and the GI50 [25] was 0.131 µM. For the same molecule, the TGI [25] was 0.346 µM, the GI50 [26] was 0.193 µM and the TGI [26] was 0.675 µM. The GI50 [27] was 0.164 µM, the TGI [27] was 1.68 µM and the GI50 [11] was 0.211 µM. It also gave a TGI [11] of 1.52 µM, a GI50 [47] of 0.292 µM and a TGI [47] of 1.19 µM. For the same molecule, the GI50 [12] was 0.251 µM, the TGI [12] was 0.635 µM and the GI50 [48] was 0.382 µM. It also gave a TGI [48] of 2.34 µM, a GI50 [28] of 0.789 µM and a TGI [28] of 2.04 µM. For the same molecule, the GI50 [29] was 0.29 µM, the TGI [29] was 1.73 µM and the GI50 [13] was 0.107 µM. For the same molecule, the TGI [13] was 0.345 µM, the GI50 [49] was 0.167 µM and the TGI [49] was 1.66 µM. The GI50 [14] was 0.33 µM, the TGI [14] was 10.7 µM and the GI50 [30] was 0.345 µM. The TGI [30] was 1.8 µM, the GI50 [50] was 0.271 µM and the TGI [50] was 0.985 µM. The GI50 [15] was 0.0235 µM, the TGI [15] was 0.103 µM and the GI50 [31] was 0.0845 µM. For the same molecule, the TGI [31] was 0.26 µM, the GI50 [51] was 0.113 µM and the TGI [51] was 0.474 µM. It also gave a GI50 [32] of 0.157 µM, a TGI [32] of 0.599 µM and a GI50 [16] of 0.0226 µM. The TGI [16] was 0.0646 µM, the GI50 [17] was 0.291 µM and the TGI [17] was 0.975 µM. It also gave a GI50 [52] of 0.173 µM, a TGI [52] of 0.411 µM and a GI50 [53] of 0.241 µM. It also gave a TGI [53] of 0.519 µM, a GI50 [54] of 0.409 µM and a TGI [54] of 1.45 µM. It also gave a GI50 [55] of 0.249 µM, a TGI [55] of 0.973 µM and a GI50 [34] of 0.156 µM. It also gave a TGI [34] of 0.291 µM, a GI50 [35] of 3.87 µM and a TGI [35] of 14.8 µM. It also gave a GI50 [36] of 0.317 µM, a TGI [36] of 2.82 µM and a GI50 [37] of 0.226 µM. It also gave a TGI [37] of 1.13 µM, a GI50 [56] of 0.371 µM and a TGI [56] of 1.66 µM. For the same molecule, the GI50 [57] was 0.128 µM, the TGI [57] was 0.541 µM and the GI50 [39] was 0.36 µM. For the same molecule, the TGI [39] was 6.89 µM, the GI50 [58] was 0.404 µM and the TGI [58] was 3.74 µM. The GI50 [40] was 0.41 µM, the TGI [40] was 10.5 µM and the GI50 [18] was 13.8 µM. The TGI [18] was 28.9 µM, the GI50 [41] was 0.213 µM and the TGI [41] was 0.38 µM. The GI50 [42] was 2.98 µM, the TGI [42] was 14 µM and the GI50 [43] was 0.133 µM. For the same molecule, the TGI [43] was 0.411 µM.
